Measurements as given in ChEMBL document CHEMBL1909294, “Translating clinical findings into knowledge in drug safety evaluation--drug induced liver injury prediction system (DILIps)” (PLoS Comput Biol, 2011).

Assays:
Hepatotoxicity [1] = test system: Hepatotoxicity;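 as to HepSE cholecystitis: Cholecystitis-related hepatic side effect score drawn from the DILIps (drug-induced liver injury prediction) training data set; call rule not given here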;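 as to HepSE cholelithiasis: hepatic side effect score for cholelithiasis, drawn from the DILIps training data for predicting drug-induced liver injury; call rule not given here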;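 as to HepSE cirrhosis: cirrhosis hepatic side effect score taken from the DILIps (drug-induced liver injury prediction) training set; call rule not given here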;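 as to HepSE hepatic necrosis: score of hepatic side effects for hepatic necrosis, drawn from the training data of DILIps, a prediction system for drug-induced liver injury; call rule not given here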;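 as to HepSE jaundice: Jaundice-related hepatic side-effect score drawn from the training data of the DILIps (drug-induced liver injury prediction system); call rule not given here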;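 as to HepSE liver function tests abnormal: hepatic side effect score taken from the DILIps (drug-induced liver injury prediction system) training data, here covering abnormal liver function test findings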
Hepatotoxicity [2] = test system: Hepatotoxicity; remark: listed apart in the source;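 as to HepSE cholecystitis: Cholecystitis-related hepatic side effect score drawn from the DILIps (drug-induced liver injury prediction) training data set; call rule not given here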;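 as to HepSE cholelithiasis: hepatic side effect score for cholelithiasis, drawn from the DILIps training data for predicting drug-induced liver injury; call rule not given here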;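 as to HepSE cirrhosis: cirrhosis hepatic side effect score taken from the DILIps (drug-induced liver injury prediction) training set; call rule not given here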;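 as to HepSE hepatic necrosis: score of hepatic side effects for hepatic necrosis, drawn from the training data of DILIps, a prediction system for drug-induced liver injury; call rule not given here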;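 as to HepSE jaundice: Jaundice-related hepatic side-effect score drawn from the training data of the DILIps (drug-induced liver injury prediction system); call rule not given here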;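 as to HepSE liver function tests abnormal: hepatic side effect score taken from the DILIps (drug-induced liver injury prediction system) training data, here covering abnormal liver function test findings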
Hepatotoxicity [3] = test system: Hepatotoxicity; remark: listed apart in the source;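 as to HepSE cholecystitis: Cholecystitis-related hepatic side effect score drawn from the DILIps (drug-induced liver injury prediction) training data set; call rule not given here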;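 as to HepSE cirrhosis: cirrhosis hepatic side effect score taken from the DILIps (drug-induced liver injury prediction) training set; call rule not given here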;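 as to HepSE hepatic necrosis: score of hepatic side effects for hepatic necrosis, drawn from the training data of DILIps, a prediction system for drug-induced liver injury; call rule not given here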;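 as to HepSE jaundice: Jaundice-related hepatic side-effect score drawn from the training data of the DILIps (drug-induced liver injury prediction system); call rule not given here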;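 as to HepSE liver function tests abnormal: hepatic side effect score taken from the DILIps (drug-induced liver injury prediction system) training data, here covering abnormal liver function test findings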
Hepatotoxicity [4] = test system: Hepatotoxicity; remark: listed apart in the source;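 as to HepSE cholecystitis: Cholecystitis-related hepatic side effect score drawn from the DILIps (drug-induced liver injury prediction) training data set; call rule not given here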;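 as to HepSE cirrhosis: cirrhosis hepatic side effect score taken from the DILIps (drug-induced liver injury prediction) training set; call rule not given here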;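 as to HepSE hepatic necrosis: score of hepatic side effects for hepatic necrosis, drawn from the training data of DILIps, a prediction system for drug-induced liver injury; call rule not given here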;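 as to HepSE jaundice: Jaundice-related hepatic side-effect score drawn from the training data of the DILIps (drug-induced liver injury prediction system); call rule not given here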;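 as to HepSE liver function tests abnormal: hepatic side effect score taken from the DILIps (drug-induced liver injury prediction system) training data, here covering abnormal liver function test findings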
Hepatotoxicity [5] = test system: Hepatotoxicity; remark: listed apart in the source
Hepatotoxicity [6] = test system: Hepatotoxicity; remark: listed apart in the source
Hepatotoxicity [7] = test system: Hepatotoxicity; remark: listed apart in the source
Hepatotoxicity [8] = test system: Hepatotoxicity; remark: listed apart in the source
Hepatotoxicity [9] = test system: Hepatotoxicity; remark: listed apart in the source
Hepatotoxicity [10] = test system: Hepatotoxicity; remark: listed apart in the source
Hepatotoxicity [11] = test system: Hepatotoxicity; remark: listed apart in the source
Hepatotoxicity [12] = test system: Hepatotoxicity; remark: listed apart in the source
Hepatotoxicity [13] = test system: Hepatotoxicity; remark: listed apart in the source
Hepatotoxicity [14] = test system: Hepatotoxicity; remark: listed apart in the source

## O=P1(N(CCCl)CCCl)NCCCO1 (stereo not drawn) [CYCLOPHOSPHAMIDE ANHYDROUS]
Hepatotoxicity [1]; Liver
  HepSE_cirrhosis: 0
Hepatotoxicity [2]; Liver
  HepSE_cholecystitis: 0
Hepatotoxicity [3]; Liver
  HepSE_hepatic necrosis: 0
Hepatotoxicity [4]; Liver
  HepSE_jaundice: 1
Hepatotoxicity [5]; Liver
  HepSE_liver function tests abnormal: 0
Hepatotoxicity [6]; Liver
  HepSE_hepatitis: 0
Hepatotoxicity [7]; Liver
  HepSE_cholelithiasis: 0
Hepatotoxicity [8]; Liver
  HepSE_hepatomegaly: 1
Hepatotoxicity [9]; Liver
  HepSE_hepatic failure: 0
Hepatotoxicity [10]; Liver
  HepSE_liver disease: 0
Hepatotoxicity [11]; Liver
  HepSE_bilirubinemia: 1
Hepatotoxicity [12]; Liver
  HepSE_elevated liver function tests: 0
Hepatotoxicity [13]; Liver
  HepSE_liver fatty: 0
Hepatotoxicity [14]; Liver
  HepSE_Combined Scores: 3

## N[C@@H]1CON=C1O [CYCLOSERINE]
Hepatotoxicity [1]
  HepSE_cirrhosis: 0
Hepatotoxicity [2]
  HepSE_cholecystitis: 0
Hepatotoxicity [3]
  HepSE_hepatic necrosis: 0
Hepatotoxicity [4]
  HepSE_jaundice: 0
Hepatotoxicity [5]
  HepSE_liver function tests abnormal: 0
Hepatotoxicity [6]
  HepSE_hepatitis: 0
Hepatotoxicity [7]
  HepSE_cholelithiasis: 0
Hepatotoxicity [8]
  HepSE_hepatomegaly: 0
Hepatotoxicity [9]
  HepSE_hepatic failure: 0
Hepatotoxicity [10]
  HepSE_liver disease: 1
Hepatotoxicity [11]
  HepSE_bilirubinemia: 0
Hepatotoxicity [12]
  HepSE_elevated liver function tests: 0
Hepatotoxicity [13]
  HepSE_liver fatty: 0
Hepatotoxicity [14]
  HepSE_Combined Scores: 1

## CN1CCC(=C2c3ccccc3C=Cc3ccccc32)CC1 [CYPROHEPTADINE]
Hepatotoxicity [1]
  HepSE_cirrhosis: 0
Hepatotoxicity [2]
  HepSE_cholecystitis: 0
Hepatotoxicity [3]
  HepSE_hepatic necrosis: 0
Hepatotoxicity [4]
  HepSE_jaundice: 1
Hepatotoxicity [5]
  HepSE_liver function tests abnormal: 0
Hepatotoxicity [6]
  HepSE_hepatitis: 1
Hepatotoxicity [7]
  HepSE_cholelithiasis: 0
Hepatotoxicity [8]
  HepSE_hepatomegaly: 0
Hepatotoxicity [9]
  HepSE_hepatic failure: 1
Hepatotoxicity [10]
  HepSE_liver disease: 0
Hepatotoxicity [11]
  HepSE_bilirubinemia: 0
Hepatotoxicity [12]
  HepSE_elevated liver function tests: 0
Hepatotoxicity [13]
  HepSE_liver fatty: 0
Hepatotoxicity [14]
  HepSE_Combined Scores: 3

## CC(=O)[C@@]1(O)CC[C@H]2[C@@H]3C=C(Cl)C4=CC(=O)[C@@H]5C[C@@H]5[C@]4(C)[C@H]3CC[C@@]21C [CYPROTERONE]
Hepatotoxicity [1]
  HepSE_cirrhosis: 1
Hepatotoxicity [2]
  HepSE_cholecystitis: 0
Hepatotoxicity [3]
  HepSE_hepatic necrosis: 1
Hepatotoxicity [4]
  HepSE_jaundice: 1
Hepatotoxicity [5]
  HepSE_liver function tests abnormal: 0
Hepatotoxicity [6]
  HepSE_hepatitis: 1
Hepatotoxicity [7]
  HepSE_cholelithiasis: 0
Hepatotoxicity [8]
  HepSE_hepatomegaly: 1
Hepatotoxicity [9]
  HepSE_hepatic failure: 1
Hepatotoxicity [10]
  HepSE_liver disease: 0
Hepatotoxicity [11]
  HepSE_bilirubinemia: 0
Hepatotoxicity [12]
  HepSE_elevated liver function tests: 0
Hepatotoxicity [13]
  HepSE_liver fatty: 0
Hepatotoxicity [14]
  HepSE_Combined Scores: 6

## NCCS [CYSTEAMINE]
Hepatotoxicity [1]
  HepSE_cirrhosis: 0
Hepatotoxicity [2]
  HepSE_cholecystitis: 0
Hepatotoxicity [3]
  HepSE_hepatic necrosis: 0
Hepatotoxicity [4]
  HepSE_jaundice: 0
Hepatotoxicity [5]
  HepSE_liver function tests abnormal: 0
Hepatotoxicity [6]
  HepSE_hepatitis: 0
Hepatotoxicity [7]
  HepSE_cholelithiasis: 0
Hepatotoxicity [8]
  HepSE_hepatomegaly: 0
Hepatotoxicity [9]
  HepSE_hepatic failure: 0
Hepatotoxicity [10]
  HepSE_liver disease: 0
Hepatotoxicity [11]
  HepSE_bilirubinemia: 0
Hepatotoxicity [12]
  HepSE_elevated liver function tests: 0
Hepatotoxicity [13]
  HepSE_liver fatty: 0
Hepatotoxicity [14]
  HepSE_Combined Scores: 0

## Nc1ccn([C@@H]2O[C@H](CO)[C@@H](O)[C@@H]2O)c(=O)n1 [CYTARABINE]
Hepatotoxicity [1]; Liver
  HepSE_cirrhosis: 0
Hepatotoxicity [2]; Liver
  HepSE_cholecystitis: 0
Hepatotoxicity [3]; Liver
  HepSE_hepatic necrosis: 0
Hepatotoxicity [4]; Liver
  HepSE_jaundice: 1
Hepatotoxicity [5]; Liver
  HepSE_liver function tests abnormal: 0
Hepatotoxicity [6]; Liver
  HepSE_hepatitis: 0
Hepatotoxicity [7]; Liver
  HepSE_cholelithiasis: 0
Hepatotoxicity [8]; Liver
  HepSE_hepatomegaly: 0
Hepatotoxicity [9]; Liver
  HepSE_hepatic failure: 0
Hepatotoxicity [10]; Liver
  HepSE_liver disease: 0
Hepatotoxicity [11]; Liver
  HepSE_bilirubinemia: 1
Hepatotoxicity [12]; Liver
  HepSE_elevated liver function tests: 0
Hepatotoxicity [13]; Liver
  HepSE_liver fatty: 0
Hepatotoxicity [14]; Liver
  HepSE_Combined Scores: 2

## C[C@@H](O)C(=O)O [D-LACTIC ACID]
Hepatotoxicity [1]
  HepSE_cirrhosis: 0
Hepatotoxicity [2]
  HepSE_cholecystitis: 0
Hepatotoxicity [3]
  HepSE_hepatic necrosis: 0
Hepatotoxicity [4]
  HepSE_jaundice: 0
Hepatotoxicity [5]
  HepSE_liver function tests abnormal: 0
Hepatotoxicity [6]
  HepSE_hepatitis: 0
Hepatotoxicity [7]
  HepSE_cholelithiasis: 0
Hepatotoxicity [8]
  HepSE_hepatomegaly: 0
Hepatotoxicity [9]
  HepSE_hepatic failure: 0
Hepatotoxicity [10]
  HepSE_liver disease: 0
Hepatotoxicity [11]
  HepSE_bilirubinemia: 0
Hepatotoxicity [12]
  HepSE_elevated liver function tests: 0
Hepatotoxicity [13]
  HepSE_liver fatty: 0
Hepatotoxicity [14]
  HepSE_Combined Scores: 0
